Results as given in ChEMBL document CHEMBL1145229, “Identified a morpholinyl-4-piperidinylacetic acid derivative as a potent oral active VLA-4 antagonist” (Bioorg Med Chem Lett, 2005).

Columns and labels:
in vivo [1] = conditions: rat
Description: Half life in lambda1 phase in rat

in vivo [2] = conditions: rat; remark: listed apart in the source
Description: Half life in lambda2 phase in rat

in vivo [3] = conditions: Sprague-Dawley, rat, iv, 1.2 mg/kg
Description: Clearance in sprague dawley rat at 1.2 mg/kg intra venous dosage

in vivo [4] = conditions: Sprague-Dawley, rat, po, 1.2 mg/kg
Description: Percent bioavailability in sprague-dawley rat at a dosage(inta venous 1.2 mg/kg, oral 5 mg/kg )

| half-life (in vivo [1]) [min] | half-life (in vivo [2]) [min] | clearance (in vivo [3]) [mL/min/kg] | bioavailability (in vivo [4]) [%] | SMILES |
| --- | --- | --- | --- | --- |
| 2.8 | 9.1 | 75.1 | < 1 | Cc1ccccc1NC(=O)Nc1ccc(CC(=O)N2CCCC2C(=O)NCCCCC(=O)O)cc1 (stereo not drawn) |
| 5.8 | 20.2 | 41.3 | < 1 | Cc1ccccc1NC(=O)Nc1ccc(CC(=O)N2CCCC2C(=O)N2CCC(CC(=O)O)CC2)cc1 (stereo not drawn) |
